#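 96-well plates; 48 h exposure; 5 concentrations. Endpoints by linear interpolation between flanking doses. Not reached: highest tested concentration assigned. Here, GI50 denotes the concentration required for 50% inhibition of growth.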 Active and inactive are the calls of the source. No stated cut-off is given here; in the data, active = GI50 up to about 1.1 µM and inactive = higher.
# Columns and labels:
# Test in all cases: DTP human tumour cell line panel, 48 h
# [1] = system: 786-0
# [2] = system: A498
# [3] = system: A549
# [4] = system: ACHN
# [5] = system: BT-549
# [6] = system: CAKI-1
# [7] = system: CCRF-CEM
# [8] = system: COLO 205
# [9] = system: DLD-1
# [10] = system: DMS-114
# [11] = system: DMS-273
# [12] = system: DU-145
# [13] = system: EKVX
# [14] = system: HCC 2998
# [15] = system: HCT-116
# [16] = system: HCT-15
# [17] = system: HL-60
# [18] = system: HOP-18
# [19] = system: HOP-62
# [20] = system: HOP-92
# [21] = system: HT-29
# [22] = system: Hs-578T
# [23] = system: IGROV-1
# [24] = system: K562
# [25] = system: KM-20L2
# [26] = system: KM12
# [27] = system: LOX IMVI
# [28] = system: M14
# [29] = system: M19-MEL
# [30] = system: MCF7
# [31] = system: MDA-MB-231
# [32] = system: MDA-MB-435
# [33] = system: MDA-N
# [34] = system: MOLT-4
# [35] = system: Malme-3M
# [36] = system: NCI-H226
# [37] = system: NCI-H23
# [38] = system: NCI-H460
# [39] = system: NCI-H522
# [40] = system: NCI/ADR-RES
# [41] = system: OVCAR-3
# [42] = system: OVCAR-4
# [43] = system: OVCAR-5
# [44] = system: OVCAR-8
# [45] = system: PC-3
# [46] = system: RPMI-8226
# [47] = system: RXF 393
# [48] = system: SF-268
# [49] = system: SF-295
# [50] = system: SF-539
# [51] = system: SK-MEL-28
# [52] = system: SK-MEL-2
# [53] = system: SK-MEL-5
# [54] = system: SK-OV-3
# [55] = system: SN12C
# [56] = system: SNB-19
# [57] = system: SNB-75
# [58] = system: SNB-78
# [59] = system: SR
# [60] = system: SW-620
# [61] = system: T47D
# [62] = system: TK-10
# [63] = system: U-251
# [64] = system: UACC-257
# [65] = system: UACC-62
# [66] = system: UO-31
# [67] = system: XF498
smiles,measurement,setting,value
O=c1[nH]c(=O)n([C@H]2CCCO2)cc1F,GI50,[1],984 µM (inactive)
same,GI50,[2],501 µM (inactive)
same,GI50,[3],446 µM (inactive)
same,GI50,[4],977 µM (inactive)
same,GI50,[5],4000 µM (inactive)
same,GI50,[6],828 µM (inactive)
same,GI50,[7],982 µM (inactive)
same,GI50,[8],673 µM (inactive)
same,GI50,[9],615 µM (inactive)
same,GI50,[10],673 µM (inactive)
same,GI50,[11],561 µM (inactive)
same,GI50,[12],748 µM (inactive)
same,GI50,[13],393 µM (inactive)
same,GI50,[14],89.7 µM (inactive)
same,GI50,[15],406 µM (inactive)
same,GI50,[16],678 µM
same,GI50,[17],644 µM (inactive)
same,GI50,[18],692 µM (inactive)
same,GI50,[19],547 µM (inactive)
same,GI50,[20],> 3120 µM (inactive)
same,GI50,[21],649 µM (inactive)
same,GI50,[22],3230 µM (inactive)
same,GI50,[23],975 µM (inactive)
same,GI50,[24],968 µM (inactive)
same,GI50,[25],824 µM (inactive)
same,GI50,[26],813 µM (inactive)
same,GI50,[27],685 µM (inactive)
same,GI50,[28],740 µM (inactive)
same,GI50,[29],545 µM (inactive)
same,GI50,[30],467 µM (inactive)
same,GI50,[31],> 2720 µM (inactive)
same,GI50,[32],615 µM (inactive)
same,GI50,[33],1200 µM (inactive)
same,GI50,[34],830 µM (inactive)
same,GI50,[35],493 µM (inactive)
same,GI50,[36],625 µM (inactive)
same,GI50,[37],759 µM (inactive)
same,GI50,[38],146 µM (inactive)
same,GI50,[39],769 µM (inactive)
same,GI50,[40],923 µM (inactive)
same,GI50,[41],684 µM (inactive)
same,GI50,[42],2610 µM (inactive)
same,GI50,[43],953 µM (inactive)
same,GI50,[44],655 µM (inactive)
same,GI50,[45],2510 µM (inactive)
same,GI50,[46],385 µM (inactive)
same,GI50,[47],769 µM (inactive)
same,GI50,[48],986 µM (inactive)
same,GI50,[49],918 µM (inactive)
same,GI50,[50],262 µM (inactive)
same,GI50,[51],830 µM (inactive)
same,GI50,[52],719 µM (inactive)
same,GI50,[53],845 µM (inactive)
same,GI50,[54],681 µM (inactive)
same,GI50,[55],838 µM (inactive)
same,GI50,[56],3920 µM (inactive)
same,GI50,[57],560 µM (inactive)
same,GI50,[58],> 1000 µM (inactive)
same,GI50,[59],337 µM (inactive)
same,GI50,[60],887 µM (inactive)
same,GI50,[61],> 465 µM (inactive)
same,GI50,[62],764 µM (inactive)
same,GI50,[63],957 µM (inactive)
same,GI50,[64],951 µM (inactive)
same,GI50,[65],569 µM (inactive)
same,GI50,[66],869 µM (inactive)
same,GI50,[67],762 µM (inactive)
O=S1(=O)C(=C(c2ccccc2)c2ccccc2)S(=O)(=O)c2ccccc21,GI50,[2],> 74.3 µM (inactive)
same,GI50,[3],> 100 µM (inactive)
same,GI50,[6],> 87.5 µM (inactive)
same,GI50,[7],> 100 µM (inactive)
same,GI50,[8],> 100 µM (inactive)
same,GI50,[9],> 100 µM (inactive)
same,GI50,[10],65.3 µM (inactive)
same,GI50,[11],> 100 µM (inactive)
same,GI50,[13],> 100 µM (inactive)
same,GI50,[14],97.1 µM (inactive)
same,GI50,[15],> 100 µM (inactive)
same,GI50,[16],> 100 µM
same,GI50,[17],> 100 µM (inactive)
same,GI50,[18],51.6 µM (inactive)
same,GI50,[19],23.2 µM (inactive)
same,GI50,[20],20.6 µM (inactive)
same,GI50,[21],> 100 µM (inactive)
same,GI50,[23],> 95.5 µM (inactive)
same,GI50,[24],> 100 µM (inactive)
same,GI50,[25],> 100 µM (inactive)
same,GI50,[26],> 100 µM (inactive)
same,GI50,[27],> 100 µM (inactive)
same,GI50,[29],> 100 µM (inactive)
same,GI50,[30],7.46 µM (inactive)
same,GI50,[34],> 100 µM (inactive)
same,GI50,[35],53.1 µM (inactive)
same,GI50,[36],> 60.3 µM (inactive)
same,GI50,[37],> 63.2 µM (inactive)
same,GI50,[38],> 100 µM (inactive)
same,GI50,[39],> 100 µM (inactive)
same,GI50,[40],> 100 µM (inactive)
same,GI50,[41],> 57.9 µM (inactive)
same,GI50,[42],83.6 µM (inactive)
same,GI50,[43],> 100 µM (inactive)
same,GI50,[44],> 100 µM (inactive)
same,GI50,[46],> 100 µM (inactive)
same,GI50,[47],34.1 µM (inactive)
same,GI50,[48],> 72.6 µM (inactive)
same,GI50,[49],33.8 µM (inactive)
same,GI50,[50],27.5 µM (inactive)
same,GI50,[51],> 100 µM (inactive)
same,GI50,[52],> 100 µM (inactive)
same,GI50,[53],> 89.7 µM (inactive)
same,GI50,[54],> 56.5 µM (inactive)
same,GI50,[55],> 100 µM (inactive)
same,GI50,[56],> 58.1 µM (inactive)
same,GI50,[57],20.2 µM (inactive)
same,GI50,[58],39.8 µM (inactive)
same,GI50,[60],> 100 µM (inactive)
same,GI50,[63],51.6 µM (inactive)
same,GI50,[64],> 100 µM (inactive)
same,GI50,[65],> 72.1 µM (inactive)
same,GI50,[66],> 100 µM (inactive)
same,GI50,[67],24.7 µM (inactive)
